Test results published in patent publication US20210353517A1, “PROCESS FOR PRODUCING A BIO-BASED SURFACTANT” (University College Dublin, priority 2018, published 2021).

How the values were obtained:
Type in all cases: physicochemical
[1] = Drop shape analysis (wettability, dynamic contact angle); settings: solution at its CMC added to 20 μL deionised water drop
Procedure: The dynamic behaviour of a 20 μL deionised water drop after the addition of an equal volume of surfactant solution at critical micelle concentration was recorded with a video recording system and analysed by a dedicated plug-in (LB-ADSA) of ImageJ® software for image analysis. The sessile drop is positioned on a smooth and plan surface of a borosilicate glass slide without any microdefects. A contour recognition is initially carried out based on a grey-scale analysis of the image. In the second step, a geometrical model describing the drop shape is fitted to the contour. The contact angle is the angle between the calculated drop shape function and the sample surface.

[2] = Surface tension analysis (DuNOUY ring tensiometer); settings: at parity of concentration (w/v), 25° C., relative to SDS
Procedure: Surface tension analysis was performed with an interfacial tensiometer Cenco DuNOUY® 70545 model. In this methodology, a ring-shaped steel tool is pulled up from a surfactant solution and the corresponding millinewton per meter (mN/m) of force applied to break the surface tension is indicated. Increasingly diluted surfactant solutions are measured until the reference value of deionised water is reached (72 mN/m). The measurements were performed at 25° C.

[3] = Critical micelle concentration by conductivity assay; settings: conductivity at 25° C., relative to SDS
Procedure: Critical micelle concentration was estimated by a conductivity assay. In this assay a pen type EC-963 model conductivity meter tester was submerged into a milliQ® grade deionised water solution to have a zero reading of pS/cm. Increasing amounts of different surfactant solutions was added to this milliQ® water solution and the conductivity was measured at 25° C. The increasing conductivity is proportional to the surfactant activity. The change of slope in the two linear interpolating curves is an indication of the critical micelle concentration (CMC) point for the specific surfactant (Al-Soufi et al 2012).

Foaming stability = settings: 10 s stirring at 1500 rpm, at respective CMC values

wettability (speed at which the contact angle of a water drop is broken) versus SDS [1]: higher that the SDS solution
surface tension value better than sodium dodecyl sulfate (SDS) [2]: 4 fold
outperformance of SDS at the specific CMC concentration (change of slope point of conductivity) [3]: 3.5 fold
foam decrease in volume over time (Foaming stability): 2 fold
foam decrease slower than SDS (Foaming stability): 3 times
foaming volume higher than SDS (Foaming stability): 1.5 fold
Structure (SMILES): CCCCCCCCCC(CCOS(=O)(=O)O)OS(=O)(=O)O (stereo not drawn) [dodecyl (1,3) disulfate]
